# Legend:
# MDR1 = experiment: MDCK-MDR1 permeability assay (BBB penetration potential); format: in vitro ADME; conditions: dog; for efflux ratio at 120 min, 5 μM: MDCK-MDR1, pH 7.4, Papp (B-to-A)/Papp (A-to-B), read-out: MDCK-MDR1: Efflux; for Papp A→B at 120 min, 5 μM / Papp B→A at 120 min, 5 μM: MDCK-MDR1, pH 7.4
# Method: (§1) Each determination is performed in duplicate. […] Analytical conditions are outlined below.
# (§2) Papp=(dCr/dt)×Vr/(A×CA) (1)
# [1] = test system: MDR1-MDCK cell monolayers; experiment: as above; format: in vitro ADME; conditions: 5 μM, 120 minutes, pH 7.4
# Method: as §1, §2
# SMN protein = SMN protein assay (MSD) in SMA patient fibroblasts GM03813; format: cell-based; conditions: Fibroblast, 48 h, SMA patient fibroblasts GM03813, 48 hours; read-out: SMN2 Potency - Protein: Protein FL EC50 (average)
# Method: Compounds were tested on spinal muscular atrophy (SMA) patient fibroblasts (GM03813, Coriell) at doses ranging from 2.5 μM to 0.6 nM. 7000 cells/well were seeded in 96-well plates. Compounds were incubated for 48 hours and the cells were lysed with 100 μL of lysis buffer. 20 μL of lysate was used for SMN protein measurement by Mesoscale Discovery (MSD) assay developed by PharmOptima (Michigan). A standard curve prepared with SMN protein ranging from 1 μg/ml to 19.5 pg/ml was used in each MSD plate to calculate the absolute SMN protein amount in each sample.
# SMN2 = experiment: Quantitative splicing assay (SMN) in SMA patient fibroblasts GM03813; format: cell-based; conditions: Homo sapiens, Fibroblast, SMA patient fibroblasts GM03813, 24 h; for IC50: read-out: SMN2 Potency - Splicing: Splicing D7 IC50 (average); for EC50: read-out: SMN2 Potency - Splicing: Splicing FL EC50 (average)
# Method: Spinal muscular atrophy (SMA) patient fibroblasts (GM03813, Coriell) are plated in 96-well plates at 50,000 cells/well. Immediately after plating, cells are dosed with compounds for 24 h at concentrations ranging from 2.5 μM to 0.6 nM (0.1% DMSO). Treated cells are lysed and cDNA synthesized using the Fast Advanced Cells-to-Ct kit (Thermofisher A35378) according to the manufacturer's instructions. 2 μL of each cDNA are used in qPCR reactions. The qPCR reactions are prepared in 384-well plates in 10 μL volume, using TaqMan™ Fast Advanced Master Mix (ThermoFisher; 4444965) with primers and probes shown in the table below. Reactions are run in a Quant Studio 6 qPCR instrument with default settings.
# It is to be understood that the absolute stereochemistry for compounds of Table 3 is not determined.
compound,measurement,setting,value
"CN(c1nnc(-c2ccc(-c3ccn(CF)c(=O)c3)cc2O)s1)[C@H]1C[C@@H]2CC[C@@H](N2)[C@H]1F (single isomer, unassigned) [Compound E-15B]","efflux ratio at 120 min, 5 μM",MDR1,66
same,"Papp A→B at 120 min, 5 μM",MDR1,0.98 ×10⁻⁶ cm/s
same,"Papp B→A at 120 min, 5 μM",MDR1,64.8 ×10⁻⁶ cm/s
same,MDCK-MDR1: % Recov A-B,[1],88%
same,MDCK-MDR1: % Recov B-A,[1],97%
same,EC50,SMN protein,16 to 50 nM
same,IC50,SMN2,51 to 100 nM
same,EC50,SMN2,101 to 500 nM
"CN(c1nnc(-c2cc(F)c(-c3cnn(C)c3)cc2O)s1)[C@H]1C[C@@H]2CC[C@@H](N2)[C@H]1F (single isomer, unassigned) [Compound E-9A]","efflux ratio at 120 min, 5 μM",MDR1,6
same,"Papp A→B at 120 min, 5 μM",MDR1,5.87 ×10⁻⁶ cm/s
same,"Papp B→A at 120 min, 5 μM",MDR1,36.3 ×10⁻⁶ cm/s
same,MDCK-MDR1: % Recov A-B,[1],51%
same,MDCK-MDR1: % Recov B-A,[1],68%
same,EC50,SMN protein,51 to 100 nM
same,IC50,SMN2,51 to 100 nM
same,EC50,SMN2,101 to 500 nM
"CN(c1nnc(-c2ccc(-c3cnn(C)c3)cc2O)s1)[C@H]1C[C@@H]2CCC[C@@H](N2)[C@H]1F [Compound E-1B, 2-(5-(((1R,2R,3S,5S)-2-fluoro-9-azabicyclo[3.3.1]nonan-3-yl)(methyl)amino)-1,3,4-thiadiazol-2-yl)-5-(1-methyl-1H-pyrazol-4-yl)phenol]","efflux ratio at 120 min, 5 μM",MDR1,4
same,"Papp A→B at 120 min, 5 μM",MDR1,5.53 ×10⁻⁶ cm/s
same,"Papp B→A at 120 min, 5 μM",MDR1,20.4 ×10⁻⁶ cm/s
same,MDCK-MDR1: % Recov A-B,[1],53%
same,MDCK-MDR1: % Recov B-A,[1],68%
same,EC50,SMN protein,0.01 to 15 nM
same,IC50,SMN2,0.01 to 15 nM
same,EC50,SMN2,16 to 50 nM
"COc1cc(-c2ccc(-c3nnc(N(C4CC4)[C@@H]4C[C@H]5CC[C@H](N5)[C@@H]4F)s3)c(O)c2)cc(F)n1 [Compound E-2A, 2-(5-(cyclopropyl((1S,2S,3R,5R)-2-fluoro-8-azabicyclo[3.2.1]octan-3-yl)amino)-1,3,4-thiadiazol-2-yl)-5-(2-fluoro-6-methoxypyridin-4-yl)phenol]","efflux ratio at 120 min, 5 μM",MDR1,6
same,"Papp A→B at 120 min, 5 μM",MDR1,2.07 ×10⁻⁶ cm/s
same,"Papp B→A at 120 min, 5 μM",MDR1,12 ×10⁻⁶ cm/s
same,MDCK-MDR1: % Recov A-B,[1],19%
same,MDCK-MDR1: % Recov B-A,[1],45%
same,EC50,SMN protein,0.01 to 15 nM
same,IC50,SMN2,0.01 to 15 nM
same,EC50,SMN2,16 to 50 nM
"CN(c1nnc(-c2ccc(-c3cnn(C)c3)cc2O)s1)[C@H]1C[C@@H]2CC[C@@H](N2)[C@H]1F [Compound E-3A, 2-(5-(((1R,2R,3S,5S)-2-fluoro-8-azabicyclo[3.2.1]octan-3-yl)(methyl)amino)-1,3,4-thiadiazol-2-yl)-5-(1-methyl-1H-pyrazol-4-yl)phenol]","efflux ratio at 120 min, 5 μM",MDR1,3
same,"Papp A→B at 120 min, 5 μM",MDR1,10.5 ×10⁻⁶ cm/s
same,"Papp B→A at 120 min, 5 μM",MDR1,35.2 ×10⁻⁶ cm/s
same,MDCK-MDR1: % Recov A-B,[1],77%
same,MDCK-MDR1: % Recov B-A,[1],85%
same,EC50,SMN protein,16 to 50 nM
same,IC50,SMN2,101 to 500 nM
same,EC50,SMN2,101 to 500 nM
"CN(c1nnc(-c2cc(F)c(-c3cnn(C)c3)cc2O)s1)[C@@H]1C[C@H]2CC[C@H](N2)[C@@H]1F (single isomer, unassigned) [Compound E-9B]","efflux ratio at 120 min, 5 μM",MDR1,5
same,"Papp A→B at 120 min, 5 μM",MDR1,5.38 ×10⁻⁶ cm/s
same,"Papp B→A at 120 min, 5 μM",MDR1,26 ×10⁻⁶ cm/s
same,MDCK-MDR1: % Recov A-B,[1],48%
same,MDCK-MDR1: % Recov B-A,[1],67%
same,EC50,SMN protein,16 to 50 nM
same,IC50,SMN2,0.01 to 15 nM
same,EC50,SMN2,16 to 50 nM
"CN(c1nnc(-c2cc(F)c(-c3cn[nH]c3)cc2O)s1)[C@H]1C[C@@H]2CC[C@@H](N2)[C@H]1F (single isomer, unassigned) [Compound E-6B]","efflux ratio at 120 min, 5 μM",MDR1,12
same,"Papp A→B at 120 min, 5 μM",MDR1,3.16 ×10⁻⁶ cm/s
same,"Papp B→A at 120 min, 5 μM",MDR1,39.3 ×10⁻⁶ cm/s
same,MDCK-MDR1: % Recov A-B,[1],62%
same,MDCK-MDR1: % Recov B-A,[1],76%
same,EC50,SMN protein,0.01 to 15 nM
same,IC50,SMN2,0.01 to 15 nM
same,EC50,SMN2,16 to 50 nM
